Assay results as given in patent publication US20250326744A1, “PIPERAZINE DERIVATIVE OR SALT THEREOF, AND PHARMACEUTICAL COMPOSITION” (priority 2022, published 2025).
Counter-ions that a name gives are not always drawn.

What was measured:
S-3769 strain = assay: Combinational effect with antibacterial agent against Pseudomonas aeruginosa (Test Examples 2 and 4): S-3769 strain with AMK or GM at 1/4 MIC, EC99; type: cell-based; conditions: Table 52, Test Example 2, 16 to 20 hours culture, OD595; for EC99, S-3769 strain, AMK: combined with AMK at 1/4 MIC; for EC99, S-3769 strain, GM: combined with GM at 1/4 MIC
Method: (§1) The combinational effect of the test compound with the antibacterial agent against Pseudomonas aeruginosa was evaluated.
The […] was used for evaluating the inhibitory ability against MexXY-OprM. AMK or GM was used as the antibacterial agent used in combination.
The S-3769 strain is a clinically isolated strain collected from a domestic medical institution, and is a strain in which the expression level of MexY is accelerated.
(§2) AMK and GM are aminoglycoside-based antibacterial agents, and are drugs that are not discharged outside the bacteria by MexB but are discharged outside the bacteria by MexY For the culture of each Pseudomonas aeruginosa strain, a 96-well plate (amount of culture medium per well: 100 μL) was used, and cation-adjusted Mueller Hinton broth (CAMHB) was used. The inoculation amount of the bacteria was set to 10^4 to 5 CFU/well.
(§3) The mexB (PA) strain and the S-3769 strain were cultured for 16 to 20 hours in a culture medium to which each antibacterial agent and test compounds at various concentrations (0 to 800 μM) were added, and the proliferation of the bacterial strains was evaluated by optical turbidity at 595 nm (OD595). The concentration of the antibacterial agent in the culture medium was set to ¼ MIC.
(§4) The proliferation of bacteria in a case where the test compound and the antibacterial agent were not added was measured, and compared with the proliferation of bacteria in a case where the test compound in a case where the antibacterial agent was added at the concentration of ¼ MIC was contained, and the lowest concentration of the test compound at which the proliferation was inhibited by 99% or more was defined as the drug efflux pump inhibitory ability of the test compound as 99% inhibitory effect concentration (EC99).
(§5) The effect of suppressing the proliferation of each test compound in combination with an antibacterial agent at ¼ MIC for mexB (PA) or the S-3769 strain was evaluated as follows according to the value of EC99. • S: EC99≤12.5 μM • A: 12.5 μM<EC99≤25 μM • B: 25 μM<EC99≤100 μM • C: 100 μM<EC99
(§6) The combinational effect of the test compound with the antibacterial agent against Pseudomonas aeruginosa was evaluated in the same manner as in Test Example 2.

mexB (PA) strain = assay: Combinational effect with antibacterial agent against Pseudomonas aeruginosa (Test Examples 2 and 4): mexB (PA) strain with LVFX, TC or AZT at 1/4 MIC, EC99; type: cell-based; conditions: Table 52, Test Example 2, 16 to 20 hours culture, OD595; for EC99, mexB (PA), AZT: combined with AZT at 1/4 MIC; for EC99, mexB (PA), LVFX: combined with LVFX at 1/4 MIC; for EC99, mexB (PA), TC: combined with TC at 1/4 MIC
Method: as §1
For the evaluation of the inhibitory ability against MexAB-OprM, a mutant strain of Pseudomonas aeruginosa in which MexAB-OprM was expressed as a main drug efflux pump (hereinafter, referred to as a “mexB (PA) strain”) was used. LVFX, TC, or AZT was used as the antibacterial agent used in combination.
The mexB (PA) strain is a strain produced by deleting the genes of MexCD-OprJ, MexEF-OprN, and MexXY in the drug efflux pump of Pseudomonas aeruginosa described in FEMS Microbiology Letters, 2001, Vol. 202, pp. 139 to 143. In the mexB (PA) strain, an expression level of MexB as a drug efflux pump is accelerated.
TC is a tetracycline-based antibacterial agent and is a drug that is discharged outside the bacteria by MexB. AZT is a monobactam-based antibacterial agent and is a drug that is discharged outside the bacteria by MexB.
as §2, §3, §4, §5, §6

| SMILES | EC99, S-3769 strain, AMK (S-3769 strain) | EC99, S-3769 strain, GM (S-3769 strain) | EC99, mexB (PA), AZT (mexB (PA) strain) | EC99, mexB (PA), LVFX (mexB (PA) strain) | EC99, mexB (PA), TC (mexB (PA) strain) |
| --- | --- | --- | --- | --- | --- |
| CCOc1cccc(F)c1CN1CCN(C(=O)[C@H](N)C2CCN(CCc3c(F)cccc3-c3ccccc3)CC2)CC1 [Example 52, Hydrobromide of (R)-2-amino-1-(4-(2-ethoxy-6-fluorobenzyl)piperazin-1-yl)-2-(1-(2-(3-fluoro-[1,l′-biphenyl]-2-yl)ethyl)piperidin-4-yl)ethan-1-one] | A (12.5 μM<EC99≤25 μM) | S (EC99≤12.5 μM) | B (25 μM<EC99≤100 μM) | B (25 μM<EC99≤100 μM) | B (25 μM<EC99≤100 μM) |
| CCOc1cccc(F)c1CN1CCN(C(=O)[C@H](N)C2CCN(CCc3c(Cl)cccc3-c3ccccc3)CC2)CC1 [Example 53, Hydrobromide of (R)-2-amino-2-(1-(2-(3-chloro-[1,1′-biphenyl]-2-yl)ethyl)piperidin-4-yl)-1-(4-(2-ethoxy-6-fluorobenzyl)piperazin-1-yl)ethan-1-one] | S (EC99≤12.5 μM) | S (EC99≤12.5 μM) | B (25 μM<EC99≤100 μM) | B (25 μM<EC99≤100 μM) | B (25 μM<EC99≤100 μM) |
| CCOc1cccc(F)c1CN1CCN(C(=O)[C@H](N)C2CCN(CCc3cc(Cl)ccc3C3=CCCCC3)CC2)CC1 [Example 56, Hydrobromide of (R)-2-amino-2-(1-(2-(4-chloro-2′,3′,4′,5′-tetrahydro-[1,1′-biphenyl]-2-yl)ethyl)piperidin-4-yl)-1-(4-(2-ethoxy-6-fluorobenzyl)piperazin-1-yl)ethan-1-one] | A (12.5 μM<EC99≤25 μM) | A (12.5 μM<EC99≤25 μM) | B (25 μM<EC99≤100 μM) | C (100 μM<EC99) | B (25 μM<EC99≤100 μM) |
| CCOc1cccc(F)c1CN1CCN(C(=O)[C@H](N)C2CCN(CCc3cc(Cl)ccc3-c3cccc(S(F)(F)(F)(F)F)c3)CC2)CC1 [Example 57, Hydrobromide of (R)-2-amino-2-(1-(2-(4-chloro-3′-(pentafluoro-λ6-sulfanyl)-[1,1′-biphenyl]-2-yl)ethyl)piperidin-4-yl)-1-(4-(2-ethoxy-6-fluorobenzyl)piperazin-1-yl) ethan-1-one] | B (25 μM<EC99≤100 μM) | B (25 μM<EC99≤100 μM) | C (100 μM<EC99) | C (100 μM<EC99) | B (25 μM<EC99≤100 μM) |
| CCOc1cccc(F)c1CN1CCN(C(=O)[C@H](N)C2CCN(CCc3cc(Cl)ccc3-c3cccc(P(C)(C)=O)c3)CC2)CC1 [Example 58, Hydrobromide of (R)-2-amino-2-(1-(2-(4-chloro-3′-(dimethylphosphoryl)-[1,1′-biphenyl]-2-yl)ethyl)piperidin-4-yl)-1-(4-(2-ethoxy-6-fluorobenzyl)piperazin-1-yl) ethan-1-one] | A (12.5 μM<EC99≤25 μM) | B (25 μM<EC99≤100 μM) | C (100 μM<EC99) | C (100 μM<EC99) | C (100 μM<EC99) |
| CCOc1cccc(F)c1CN1CCN(C(=O)[C@H](N)C2CCN(CCc3cc(Cl)ccc3-c3cccc(C#N)c3)CC2)CC1 [Example 65, Hydrobromide of (R)-2′-(2-(4-(1-amino-2-(4-(2-ethoxy-6-fluorobenzyl)piperazin-1-yl)-2-oxoethyl)piperidin-1-yl)ethyl)-4′-chloro-[1,1′-biphenyl]-3-carbonitrile] | A (12.5 μM<EC99≤25 μM) | A (12.5 μM<EC99≤25 μM) | B (25 μM<EC99≤100 μM) | C (100 μM<EC99) | B (25 μM<EC99≤100 μM) |
| CCOc1cccc(F)c1CN1CCN(C(=O)[C@H](N)C2CCN(CCc3cc(Cl)ccc3-c3cccc(C)c3)CC2)CC1 [Example 68, Hydrobromide of (R)-2-amino-2-(1-(2-(4-chloro-3′-methyl-[1,1′-biphenyl]-2-yl)ethyl)piperidin-4-yl)-1-(4-(2-ethoxy-6-fluorobenzyl)piperazin-1-yl)ethan-1-one] | A (12.5 μM<EC99≤25 μM) | A (12.5 μM<EC99≤25 μM) | B (25 μM<EC99≤100 μM) | B (25 μM<EC99≤100 μM) | B (25 μM<EC99≤100 μM) |
| CCOc1cccc(F)c1CN1CCN(C(=O)[C@H](N)C2CCN(CCc3cc(Cl)ccc3-c3ccc(C)cc3)CC2)CC1 [Example 69, Hydrobromide of (R)-2-amino-2-(1-(2-(4-chloro-4′-methyl-[1,1′-biphenyl]-2-yl)ethyl)piperidin-4-yl)-1-(4-(2-ethoxy-6-fluorobenzyl)piperazin-1-yl)ethan-1-one] | S (EC99≤12.5 μM) | S (EC99≤12.5 μM) | C (100 μM<EC99) | C (100 μM<EC99) | B (25 μM<EC99≤100 μM) |
| CCOc1cccc(F)c1CN1CCN(C(=O)[C@H](N)C2CCN(CCc3cc(Cl)ccc3C3=CCNCC3)CC2)CC1 [Example 71, (R)-2-amino-2-(1-(5-chloro-2-(1,2,3,6-tetrahydropyridin-4-yl)phenethyl)piperidin-4-yl)-1-(4-(2-ethoxy-6-fluorobenzyl)piperazin-1-yl)ethan-1-one] | S (EC99≤12.5 μM) | S (EC99≤12.5 μM) | C (100 μM<EC99) | B (25 μM<EC99≤100 μM) | S (EC99≤12.5 μM) |
| CCOc1cccc(F)c1CN1CCN(C(=O)[C@H](N)C2CCN(CCc3cc(Cl)ccc3-c3cccs3)CC2)CC1 [Example 72, Hydrobromide of (R)-2-amino-2-(1-(5-chloro-2-(thiophen-2-yl)phenethyl)piperidin-4-yl)-1-(4-(2-ethoxy-6-fluorobenzyl)piperazin-1-yl)ethan-1-one] | S (EC99≤12.5 μM) | S (EC99≤12.5 μM) | B (25 μM<EC99≤100 μM) | C (100 μM<EC99) | B (25 μM<EC99≤100 μM) |
| CCOc1cccc(F)c1CN1CCN(C(=O)[C@H](N)C2CCN(CCc3cc(Cl)ccc3-c3cccnc3)CC2)CC1 [Example 73, Hydrobromide of (R)-2-amino-2-(1-(5-chloro-2-(pyridin-3-yl)phenethyl)piperidin-4-yl)-1-(4-(2-ethoxy-6-fluorobenzyl)piperazin-1-yl)ethan-1-one] | S (EC99≤12.5 μM) | S (EC99≤12.5 μM) | A (12.5 μM<EC99≤25 μM) | C (100 μM<EC99) | B (25 μM<EC99≤100 μM) |
| CCOc1cccc(F)c1CN1CCN(C(=O)[C@H](N)C2CCN(CCc3cc(Cl)ccc3-c3ccncc3)CC2)CC1 [Example 74, Hydrobromide of (R)-2-amino-2-(1-(5-chloro-2-(pyridin-4-yl)phenethyl)piperidin-4-yl)-1-(4-(2-ethoxy-6-fluorobenzyl)piperazin-1-yl)ethan-1-one] | S (EC99≤12.5 μM) | A (12.5 μM<EC99≤25 μM) | C (100 μM<EC99) | C (100 μM<EC99) | C (100 μM<EC99) |
| CCOc1cccc(F)c1CN1CCN(C(=O)[C@H](N)C2CCN(CCc3cc(Cl)ccc3-c3ccccc3OC)CC2)CC1 [Example 76, Hydrobromide of (R.)-2-amino-2-(1-(2-(4-chloro-2′-methoxy-[1,1′-biphenyl]-2-yl)ethyl)piperidin-4-yl)-1-(4-(2-ethoxy-6-fluorobenzyl)piperazin-1-yl)ethan-1-one] | A (12.5 μM<EC99≤25 μM) | A (12.5 μM<EC99≤25 μM) | A (12.5 μM<EC99≤25 μM) | B (25 μM<EC99≤100 μM) | B (25 μM<EC99≤100 μM) |
